# Assays:
# Test in all cases: biochemical
# [1] = target: WT HIV-1 PR (NL4-3) (Human immunodeficiency virus type 1 group M subtype B, UniProt P12497)
# Protocol: (§1) In vitro transcription and cell-free protein synthesis were performed using WEPRO7240 wheat germ extract (CellFree Sciences, Yokohama, Japan). Transcription was performed using SP6 RNA polymerase, as described previously ([Matsunaga et al., 2014]). The translation reaction was performed in bilayer mode with slight modifications. Briefly, translation mixture (forming the bottom layer) consisted of 10 μl of each mRNA (usually 30–35 μg), 10 μl of WEPRO7240 (CellFree Sciences, Yokohama, Japan), and 0.8 μl of 1 μg/μl creatine kinase (Roche Diagnostics K. K., Tokyo, Japan) in 20.8 μl of SUB-AMIX® (CellFree Sciences, Yokohama, Japan). SUB-AMIX (206 μl) was placed on top of the translation mixture, thus forming the top layer. After incubation at 16°C for 16 h, synthesized proteins were confirmed by immunoblotting. For biotinylation of the substrate, 1 μl (50 ng) of crude biotin ligase (BirA) expressed in a wheat germ cell-free system was added to the bottom layer, and 0.5 μM (final concentration) of D-biotin (Nacalai Tesque, Inc., Kyoto, Japan) was added to both the top and bottom layers, as described previously ([Matsuoka et al., 2010]). As an initial experimental test, radiolabeled protein was produced by cell-free synthesis to confirm the yield and solubility of generated proteins as described previously ([Kamura et al., 2005]). In actual drug susceptibility testing, quantitations of synthesized HIV-1 PR proteins were performed by densitometric scanning of Coomassie Brilliant Blue (CBB)-stained bands as compared with purified HIV-1 PR or bovine serum albumin (BSA) ([Madin et al., 2000]).
# (§2) CFDSA was performed using cell-free–synthesized PR, substrate peptide, and the AlphaScreen® system (PerkinElmer, Boston, MA, USA). […] The mixture was incubated at 37°C for 30 min in a 384-well Alphaplate (PerkinElmer). The enzymatic reaction was initiated by the addition of 5 μl of 0.25 μM cell-free–synthesized GST-p2/p7-bls substrate to each well, followed by incubation at 37°C for 2 h. Detection of PR activity was performed essentially as described in the AlphaScreen IgG detection kit instruction manual (PerkinElmer). Briefly, 10 μl of detection mixture containing 20 mM Tris-HCl (pH 7.5), 0.2 mM DTT, 5 mM MgCl2, 5 μg/ml anti-GST antibody, 1 mg/ml BSA, 0.1 μl streptavidin-coated donor beads, and 0.1 μl anti-IgG acceptor beads were added to each well of the 384-well plate, followed by incubation at 23°C for 1 h in the dark. Luminescence signals were analyzed with the AlphaScreen detection program using the EnSpire software (PerkinElmer), and light intensities in the presence of the serially diluted inhibitors were used to calculate their IC50 values. PI-resistance levels were determined by comparing the IC50 values of drug-resistant PR with those of NL4-3 PR. The results for each PR were normalized based on protein productivity, as determined by liquid scintillation counting. IC50 values were calculated using XLfit (ID BUSINESS SOLUTIONS, Guildford, UK). The criteria for CFDSA measurement of resistance were as follows: fold resistance value (FRV) = IC50 ratio of test PR/IC50 ratio of WT PR.
# (§3) For the quantitative and high-throughput measurement of HIV-1 PR activity using AlphaScreen technology, we designed a reporter substrate comprising a partial Gag p2-p7 junction peptide flanked by N-terminal GST and C-terminal biotin binding sequence (GST-p2/p7-biotin) as described in Figure 2A.
# [2] = target: drug-resistant HIV-1 PR (PR02-A) harboring L10I/G48S/I54V/V82F/L90M mutations (Human immunodeficiency virus type 1 group M subtype B, UniProt P12497, G536S/I542V/L498I/L578M/V570F)
# Protocol: as §1, §2, §3
# [3] = tested on: drug-resistant HIV-1 PR (PR02-A) harboring L10I/G48S/I54V/V82F/L90M mutations; conditions: IC50 of drug-resistant PR divided by IC50 of WT PR
# Protocol: as §1, §2, §3
SMILES,IC50 [1] [nM],IC50 [2] [nM],"fold-resistance to WT PR (FRV, DR/WT) [3] [fold]"
"CC(C)CN(C[C@@H](O)[C@H](Cc1ccccc1)NC(=O)O[C@H]1CCOC1)S(=O)(=O)c1ccc(N)cc1 [APV, amprenavir]",23.2,93.5,4.0
"COC(=O)N[C@H](C(=O)N[C@@H](Cc1ccccc1)[C@@H](O)CN(Cc1ccc(-c2ccccn2)cc1)NC(=O)[C@@H](NC(=O)OC)C(C)(C)C)C(C)(C)C [ATV, atazanavir]",17.8,137,7.7

# — paper PMC4628118 (Frontiers in Microbiology, 2015)
